Activity calls are given as the source filed them. The calls are words filed in the database; no cut-off is given here.
What was measured:
[1] = Acute toxicity in BALB/c mouse assessed as change in kidney weight at 10 to 90 mg/kg, po measured for 7 days; assay type: organism-based; settings: in vivo, 168 h, dose 10-90 mg/kg, time 7 day
[2] = Acute toxicity in BALB/c mouse assessed as change in ALT level at 10 to 90 mg/kg, po measured for 7 days; assay type: organism-based; settings: in vivo, 168 h, dose 10-90 mg/kg, time 7 day
[3] = Oral bioavailability in male Sprague-Dawley rat at 10 mg/kg measured upto 48 hrs by UHPLC-MS/MS analysis; assay type: ADME, organism-based; settings: in vivo
[4] = Bioavailability in male Sprague-Dawley rat […] by UHPLC-MS/MS analysis; assay type: ADME, organism-based; settings: in vivo
[5] = Cmax in male Sprague-Dawley rat at 10 mg/kg, po measured upto 48 hrs by UHPLC-MS/MS analysis; assay type: ADME, organism-based; settings: in vivo
[6] = Acute toxicity in BALB/c mouse assessed as change in lung weight at 10 to 90 mg/kg, po measured for 7 days; assay type: organism-based; settings: in vivo, 168 h, dose 10-90 mg/kg, time 7 day
[7] = Acute toxicity in BALB/c mouse assessed as morphological change in liver at 10 to 90 mg/kg, po measured for 7 days by H and E staining based analysis; assay type: organism-based; settings: in vivo, 168 h, dose 10-90 mg/kg, time 7 day
[8] = system: HCT-116; test: Antitumor activity against human HCT-116 cells xenografted in BALB/c mouse assessed as inhibition of tumor growth at 10 to 40 mg/kg, ip administered for 2 weeks; assay type: functional, organism-based; settings: dose 10-40 mg/kg
[9] = system: HCT-116; test: Antitumor activity against human HCT-116 cells xenografted in BALB/c mouse assessed as inhibition of tumor proliferation at 10 to 40 mg/kg, ip administered for 2 weeks by Ki67 staining based immunohistochemical analysis; assay type: functional, organism-based; settings: dose 10-40 mg/kg
[10] = Acute toxicity in BALB/c mouse assessed as change in creatine level at 10 to 90 mg/kg, po measured for 7 days; assay type: organism-based; settings: in vivo, 168 h, dose 10-90 mg/kg, time 7 day
[11] = Toxicity in BALB/c mouse implanted with human HCT-116 cells assessed as change in body weight at 10 to 40 mg/kg, ip administered for 2 weeks; assay type: organism-based; settings: in vivo, 336 h, dose 10-40 mg/kg
[12] = Half life in male Sprague-Dawley rat at 2 mg/kg, iv measured upto 8 hrs by UHPLC-MS/MS analysis; assay type: ADME, organism-based; settings: in vivo
[13] = system: RKO; test: Inhibition of DNA replication in human RKO cells assessed as reduction in EdU positive cells incubated for 48 hrs by EdU staining based fluorescence microscopic analysis; assay type: functional, cell-based; settings: dose 1.25-5 µM
[14] = system: RKO; test: Antiproliferative activity against human RKO cells incubated for 48 hrs by MTS assay; assay type: functional, cell-based
[15] = Acute toxicity in BALB/c mouse assessed as change in body weight at 10 to 90 mg/kg, po measured for 7 days; assay type: organism-based; settings: in vivo, 168 h, dose 10-90 mg/kg, time 7 day
[16] = AUC (0 to t) in male Sprague-Dawley rat at 2 mg/kg, iv measured upto 8 hrs by UHPLC-MS/MS analysis; assay type: ADME, organism-based; settings: in vivo
[17] = Acute toxicity in BALB/c mouse assessed as change in spleen weight at 10 to 90 mg/kg, po measured for 7 days; assay type: organism-based; settings: in vivo, 168 h, dose 10-90 mg/kg, time 7 day
[18] = system: HCT-116; test: Antiproliferative activity against human HCT-116 cells incubated for 48 hrs by MTS assay; assay type: functional, cell-based; settings: HCT-116, 48 h
[19] = Acute toxicity in BALB/c mouse assessed as change in AST level at 10 to 90 mg/kg, po measured for 7 days; assay type: organism-based; settings: in vivo, 168 h, dose 10-90 mg/kg, time 7 day
[20] = Half life in male Sprague-Dawley rat at 10 mg/kg, po measured upto 48 hrs by UHPLC-MS/MS analysis; assay type: ADME, organism-based; settings: in vivo
[21] = Acute toxicity in BALB/c mouse assessed as morphological change in kidney at 10 to 90 mg/kg, po measured for 7 days by H and E staining based analysis; assay type: organism-based; settings: in vivo, 168 h, dose 10-90 mg/kg, time 7 day
[22] = system: HCT-116; test: Antitumor activity against human HCT-116 cells xenografted in BALB/c mouse assessed as inhibition of XRCC2 expression at 10 to 40 mg/kg, ip administered for 2 weeks by Western blot analysis; assay type: functional, organism-based; settings: dose 10-40 mg/kg
[23] = AUC (0 to t) in male Sprague-Dawley rat at 10 mg/kg, po measured upto 48 hrs by UHPLC-MS/MS analysis; assay type: ADME, organism-based; settings: in vivo
[24] = system: HCT-116; test: Inhibition of DNA replication in human HCT-116 cells assessed as reduction in EdU positive cells incubated for 48 hrs by EdU staining based fluorescence microscopic analysis; assay type: functional, cell-based; settings: dose 1.25-5 µM
[25] = system: HCT-116; test: Inhibition of colony formation in human HCT-116 cells assessed as reduction in colony formation at 5 uM by crystal violet staining based light microscopic analysis; assay type: functional
[26] = system: HCT-116; test: Inhibition of BRCA1 expression in human HCT-116 cells incubated for 48 hrs Western blot analysis; assay type: functional, cell-based; settings: dose 1.25-5 µM
[27] = Tmax in male Sprague-Dawley rat at 2 mg/kg, iv measured upto 8 hrs by UHPLC-MS/MS analysis; assay type: ADME, organism-based; settings: in vivo
[28] = system: RKO; test: Inhibition of colony formation in human RKO cells by crystal violet staining based light microscopic analysis; assay type: functional, cell-based; settings: dose 1.25-5 µM
[29] = system: HCT-116; test: Induction of DNA damage in human HCT-116 cells assessed as increase in 53BP1 foci positive cells at 1.25 to 5 uM incubated for 48 hrs by immunofluorescence staining based analysis; assay type: functional, cell-based; settings: dose 1.25-5 µM
[30] = system: HCT-116; test: Inhibition of colony formation in human HCT-116 cells by crystal violet staining based light microscopic analysis; assay type: functional, cell-based; settings: dose 1.25-5 µM
[31] = system: HCT-116; test: Inhibition of XRCC2 expression in human HCT-116 cells incubated for 48 hrs Western blot analysis; assay type: functional, cell-based; settings: dose 1.25-5 µM
[32] = system: HCT-116; test: Inhibition of BRCA1 expression in human HCT-116 cells assessed as reduction in fluorescence intensity at 1.25 to 5 uM incubated for 48 hrs immunofluorescence analysis; assay type: functional, cell-based; settings: dose 1.25-5 µM
[33] = Cmax in male Sprague-Dawley rat at 2 mg/kg, iv measured upto 8 hrs by UHPLC-MS/MS analysis; assay type: ADME, organism-based; settings: in vivo
[34] = AUC (0 to infinity) in male Sprague-Dawley rat at 10 mg/kg, po measured upto 48 hrs by UHPLC-MS/MS analysis; assay type: ADME, organism-based; settings: in vivo
[35] = system: HCT-116; test: Antitumor activity against human HCT-116 cells xenografted in BALB/c mouse assessed as inhibition of BRCA1 expression at 10 to 40 mg/kg, ip administered for 2 weeks by Western blot analysis; assay type: functional, organism-based; settings: dose 10-40 mg/kg
[36] = system: RKO; test: Inhibition of colony formation in human RKO cells assessed as reduction in colony formation at 5 uM by crystal violet staining based light microscopic analysis; assay type: functional
[37] = Acute toxicity in BALB/c mouse assessed as change in liver weight at 10 to 90 mg/kg, po measured for 7 days; assay type: organism-based; settings: in vivo, 168 h, dose 10-90 mg/kg, time 7 day
[38] = system: HCT-116; test: Antitumor activity against human HCT-116 cells xenografted in BALB/c mouse assessed as increase in DNA damage by measuring gamma-H2AX level at 10 to 40 mg/kg, ip administered for 2 weeks by immunohistochemical analysis; assay type: functional, organism-based; settings: dose 10-40 mg/kg
[39] = Tmax in male Sprague-Dawley rat at 10 mg/kg, po measured upto 48 hrs by UHPLC-MS/MS analysis; assay type: ADME, organism-based; settings: in vivo
[40] = Toxicity in BALB/c mouse implanted with human HCT-116 cells assessed as morphological changes in tumor t at 10 to 40 mg/kg, ip administered for 2 weeks by H and E staining based analysis; assay type: organism-based; settings: in vivo, 336 h, dose 10-40 mg/kg
[41] = system: HCT-116; test: Induction of cell cycle arrest in human HCT-116 cells at 5 uM incubated for 2 to 48 hrs by PI staining based flow cytometry analysis; assay type: functional; settings: time 2-48 hrs
[42] = Acute toxicity in BALB/c mouse assessed as change in heart weight at 10 to 90 mg/kg, po measured for 7 days; assay type: organism-based; settings: in vivo, 168 h, dose 10-90 mg/kg, time 7 day
[43] = AUC (0 to infinity) in male Sprague-Dawley rat at 2 mg/kg, iv measured upto 8 hrs by UHPLC-MS/MS analysis; assay type: ADME, organism-based; settings: in vivo

## COc1cc2c(c(O)c1C(=O)/C=C/c1ccccc1N1CCN(C)CC1)C=CC(C)(C)O2
[1]
  Activity: Non-toxic
[2]
  Activity: Non-toxic
[3]
  bioavailability: 37.5%
[4]
  bioavailability: 37.5%
[5]
  Cmax: 152 ng/mL
[6]
  Activity: Non-toxic
[7]
  Activity: Non-toxic
[8]
  Activity: Active
[9]
  Activity: Active
[10]
  Activity: Non-toxic
[11]
  Activity: Non-toxic
[12]
  t1/2: 49.2 min
[13]
  inhibition: Dose-dependent-effect
[14]
  IC50: 4.01 µM
[15]
  Activity: Non-toxic
[16]
  AUC(0-t) at 8 h: 866 µg·h/mL
[17]
  Activity: Non-toxic
[18]
  IC50: 5.4 µM
[19]
  Activity: Non-toxic
[20]
  half-life: 2.89 days
[21]
  Activity: Non-toxic
[22]
  Activity: Active
[23]
  AUC(0-t) at 48 h: 1270 µg·h/mL
[24]
  inhibition: Dose-dependent-effect
[25]
  inhibition at 5 µM: 2%
[26]
  inhibition: Dose-dependent-effect
[27]
  Tmax: 2.28 min
[28]
  inhibition: Dose-dependent-effect
[29]
  Activity: Active
[30]
  inhibition: Dose-dependent-effect
[31]
  inhibition: Dose-dependent-effect
[32]
  inhibition: Active
[33]
  Cmax: 359 ng/mL
[34]
  AUC(0-inf): 3000 ng·h/mL
[35]
  Activity: Active
[36]
  inhibition at 5 µM: 2%
[37]
  Activity: Non-toxic
[38]
  Activity: Active
[39]
  Tmax: 4 h
[40]
  Activity: Non-toxic
[41]
  Activity: Active
[42]
  Activity: Non-toxic
[43]
  AUC: 1610 ng·h/mL

Reference: ChEMBL document CHEMBL6078725, “Discovery of novel xanthohumol C derivatives regulating XRCC2 transcription and expression for the treatment of colorectal cancer” (Bioorg Med Chem, 2025)
